# Measured values as given in PubChem BioAssay (NCI).
#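 The compound was tested at five concentrations on cells cultured in 96-well plates, with a 48-hour exposure period. GI50: concentration for 50% inhibition of growth. Definition used: TGI = concentration required for complete inhibition of growth.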
# What was measured:
# Experiment in all cases: inhibition of tumour cell growth, NCI panel, 48 h
# SF-295 CNS = test system: SF-295 CNS
# MCF7 breast = test system: MCF7 breast
# MALME-3M melanoma = test system: MALME-3M melanoma
# UACC-257 melanoma = test system: UACC-257 melanoma
# OVCAR-5 ovarian = test system: OVCAR-5 ovarian
# RXF 393 renal = test system: RXF 393 renal
# SW-620 colon = test system: SW-620 colon
# SK-MEL-28 melanoma = test system: SK-MEL-28 melanoma
# LOX IMVI melanoma = test system: LOX IMVI melanoma
# MDA-MB-231 breast = test system: MDA-MB-231 breast
SMILES,GI50 (SF-295 CNS) [µM],TGI (SF-295 CNS) [µM],GI50 (MCF7 breast) [µM],TGI (MCF7 breast) [µM],GI50 (MALME-3M melanoma) [µM],TGI (MALME-3M melanoma) [µM],GI50 (UACC-257 melanoma) [µM],TGI (UACC-257 melanoma) [µM],GI50 (OVCAR-5 ovarian) [µM],TGI (OVCAR-5 ovarian) [µM],GI50 (RXF 393 renal) [µM],TGI (RXF 393 renal) [µM],GI50 (SW-620 colon) [µM],TGI (SW-620 colon) [µM],TGI (SK-MEL-28 melanoma) [µM],TGI (LOX IMVI melanoma) [µM],GI50 (SK-MEL-28 melanoma) [µM],GI50 (LOX IMVI melanoma) [µM],GI50 (MDA-MB-231 breast) [µM],TGI (MDA-MB-231 breast) [µM]
COc1cc(C2CC(c3ccc(Cl)cc3)=NN2C(C)=O)ccc1Oc1ccnc2cc(Cl)ccc12 (stereo unspecified),4.22,> 100,> 100,> 100,> 100,> 100,> 100,> 100,> 100,> 100,3.32,20.1,> 100,> 100,,,,,,
O=C(O)C1CC2C=CCC(C2)C1 (stereo unspecified),,> 100,,,,> 100,,> 100,,> 100,,> 100,,> 100,> 100,> 100,,,,
CCOC(=O)NN1C(=O)C(=P(c2ccccc2)(c2ccccc2)c2ccccc2)C(C(=O)OC)=C1C,,> 100,,,,> 100,,> 100,,> 100,,> 100,,> 100,,> 100,,,,
N.N.N.N.O=S([O-])[O-].[Co+3].[N-]=[N+]=[N-],> 100,> 100,,,> 100,> 100,> 100,> 100,> 100,> 100,,,> 100,> 100,> 100,> 100,> 100,> 100,,
O=C1N=C2N=C(c3ccc(Cl)cc3)N(c3ccc(Cl)cc3)N2Sc2ccccc21,,> 100,,,,> 100,,> 100,,> 100,,> 100,,> 100,> 100,> 100,,,,
CCCCS(=O)(=O)c1cc(Nc2ccc(O)c3c2C(=O)c2ccccc2C3=O)ccc1C,5.77,> 100,1.25,> 100,,,,,> 100,> 100,14.6,> 100,> 100,> 100,> 100,,> 100,,1.68,> 100
COc1cc(N)c(Cl)cc1C(=O)N[C@@H]1CCN(CCCOc2ccc(F)cc2)C[C@@H]1OC,50.3,> 100,57,> 100,> 100,> 100,,,> 100,> 100,> 100,> 100,> 100,> 100,> 100,> 100,> 100,27,60.2,> 100
CN(C)C(=S)/N=c1\ssc(=Nc2ccccc2)n1-c1ccccc1,,> 100,,,,> 100,,> 100,,> 100,,44.3,,> 100,> 100,87,,,,
Nc1ccc(C(=O)N/C(=C\c2ccc3c(c2)OCO3)c2nc3ccccc3s2)cc1,,30.3,,,,,,,,36.5,,27.9,,23.6,25.9,,,,,
COC(=O)C1=C(O)c2cc(OC)c(OC)c(OC)c2C(c2ccc3c(c2)OCO3)[C@@H]1C(=O)OC (stereo partly specified),,13.4,,,,> 100,,> 100,,> 100,,6.26,,> 100,> 100,> 100,,,,
COC(=O)N[C@@H](C)CNc1nccc(-c2cn(C(C)C)nc2-c2cc(Cl)cc(NS(C)(=O)=O)c2F)n1,55.7,> 100,98.5,> 100,,,,,> 39.2,> 100,0.623,23.3,12.1,> 100,,> 100,,0.268,5.72,> 100
CCOC(=N)CC(=O)Nc1ccccc1CC,,> 100,,,,> 100,,> 100,,> 100,,> 100,,> 100,> 100,> 100,,,,
COc1ccc(OCC(=O)O)c2c1CCC(C)C2=O (stereo unspecified),,> 100,,,,> 100,,> 100,,> 100,,,,> 100,> 100,> 100,,,,
c1ccc(N2CCN(CCN3CCc4c([nH]c5ccccc45)C3c3cccnc3)CC2)cc1 (stereo unspecified),,> 100,,,,,,> 100,,> 100,,,,> 100,> 100,,,,,
Cc1cccc(C=NC23CC4CC(CC(C4)C2)C3)c1,,> 100,,,,> 100,,> 100,,> 100,,> 100,,> 100,> 100,> 100,,,,
COc1ccccc1/C=C(\NC(=O)c1ccccc1)c1nc2ccccc2[nH]1,,,,,,> 100,,> 100,,> 100,,> 100,,> 100,> 100,> 100,,,,
Fc1ccc(-c2ncn(C3CCNCC3)c2-c2ccnc(Oc3ccc(Cl)cc3)n2)cc1,4.39,9.26,3.93,7.7,4.64,10.1,,,5.09,14.9,2.56,5.91,3.74,7.3,7.85,8.29,4.17,4.16,4.46,8.6
O=C(CC1(O)CCCCC1)OC1CCCC1,,> 100,,> 100,,> 100,,> 100,,> 100,,> 100,,,,> 100,,,,> 100
COc1ccc(CN2c3ccccc3Sc3ccccc32)cc1O,0.225,0.646,0.355,13.4,12.1,28.1,,,12.7,36,0.338,15.6,0.504,17.7,32.2,18.8,14.4,0.71,0.668,18.1
C[C@@H]1CC2(C[C@@H](C)C3[C@@H](CC4(C)CCCC5C6=CC(O)(CC[C@]34C)OC6=CC(=O)OC5(C)C)O2)OC1=O (stereo partly specified),,,,,,> 100,,,,> 100,,> 100,,> 100,> 100,> 100,,,,
COC(OC)c1cccnc1C,,> 100,,,,> 100,,> 100,,> 100,,> 100,,> 100,> 100,> 100,,,,
